Values quoted from earlier work, collected in patent US9512385B2, “Disinfectant solution for nonionic soft contact lenses” (MENICON CO., LTD., priority 2012, dated 2016).

Conditions: background art statement

polylysine
IC50 value in cytotoxicity test relative to PHMB: about several hundredth part of that of PHMB
